In patent US20050124498A1, “Halobenzyl substituted phenylaceto esters and amides and use thereof for prevention of harmful organisms” (priority 2002, published 2005):

Legend:
[1] = system: Erysiphe graminis f.sp. hordei; assay: Erysiphe test (barley)/protective; assay type: in vivo; settings: Blumeria graminis, 168 h, protective, application rate 500 g/ha, evaluation 7 days after inoculation, read-out: efficacy
Protocol: Erysiphe test (barley)/protective [table] To produce a suitable preparation of active compound, 1 part by weight of active compound is mixed with the stated amounts of solvent and emulsifier, and the concentrate is diluted with water to the desired concentration. To test for protective activity, young plants are sprayed with the preparation of active compound at the stated application rate. After the spray coating has dried on, the plants are dusted with spores of Erysiphe graminis f.sp. hordei. The plants are placed in a greenhouse at a temperature of about 20° C. and a relative atmospheric humidity of about 80% to promote the development of mildew pustules.

Phytophthora infestans = assay: whole plant or invertebrate; assay type: in vivo; settings: in Solanum lycopersicum, 72 h, read-out: efficacy
Sphaerotheca fuliginea = assay: Sphaerotheca test (cucumber)/protective; assay type: in vivo; settings: Podosphaera fuliginea, 168 h, protective, application rate 100 g/ha, evaluation 7 days after inoculation, read-out: efficacy
Protocol: (§1) Sphaerotheca test (cucumber)/protective [table] To produce a suitable preparation of active compound, 1 part by weight of active compound is mixed with the stated amounts of solvent and emulsifier, and the concentrate is diluted with water to the desired concentration. To test for protective activity, young plants are sprayed with the preparation of active compound at the stated application rate. After the spray coating has dried on, the plants are inoculated with an aqueous spore suspension of Sphaerotheca fuliginea. The plants are then placed in a greenhouse at about 23° C. and about 70% relative atmospheric humidity.

[2] = system: apple scab pathogen Venturia inaequalis; assay: Venturia test (apple)/protective; assay type: in vivo; settings: 240 h, protective, application rate 100 g/ha, evaluation 10 days after inoculation, read-out: efficacy
Protocol: Venturia test (apple)/protective […] To produce a suitable preparation of active compound, 1 part by weight of active compound is mixed with the stated amounts of solvent and emulsifier, and the concentrate is diluted with water to the desired concentration. To test for protective activity, young plants are sprayed with the preparation of active compound at the stated application rate. After the spray coating has dried on, the plants are inoculated with an aqueous conidia suspension of the apple scab pathogen Venturia inaequalis and then remain in an incubation cabin at about 20° C. and 100% relative atmospheric humidity for 1 day. The plants are then placed in a greenhouse at about 21° C. and a relative atmospheric humidity of about 90%.

[3] = system: apple mildew pathogen Podosphaera leucotricha; assay: Podosphaera test (apple)/protective; assay type: in vivo; settings: 240 h, protective, application rate 100 g/ha, evaluation 10 days after inoculation, read-out: efficacy
Protocol: as §1, with “Podosphaera” for “Sphaerotheca”, “(apple)/protective” for “(cucumber)/protective”, “the apple mildew pathogen Podosphaera leucotricha.” for “Sphaerotheca fuliginea.”

CO/N=C(/C(=O)OC)c1c(F)cccc1Oc1ccccc1 [Example 3, methyl (2-fluoro-6-phenoxyphenyl)methoxyiminoacetate]
pest or weed control at 500 g/ha [1]: ≥ 98% | chromatographic logP (physchem; pH 2, log P (pH 2)): 3.24

CNC(=O)/C(=N/OC)c1c(F)cccc1Oc1ccccc1 [Example 4, 2-(2-fluoro-6-phenoxyphenyl)-2-methoxyimino-N-methylacetamide]
pest or weed control at 500 g/ha [1]: ≥ 98% | chromatographic logP (physchem; pH 2, log P (pH 2)): 2.56

CNC(=O)/C(=N/OC)c1ccc(F)cc1Oc1ncnc(Oc2ccccc2Cl)c1F [Example 7, N-methyl-2-{2-[6-(2-chlorophenoxy)-5-fluoropyrimidin-4-yloxy]-4-fluorophenyl}-2-methoxyiminoacetamide]
pest or weed control at 100 g/ha (Phytophthora infestans): ≥ 86% | pest or weed control at 100 g/ha (Sphaerotheca fuliginea): ≥ 98% | pest or weed control at 100 g/ha [2]: ≥ 97% | chromatographic logP (physchem; pH 2, log P (pH 2)): 3.14

CNC(=O)/C(=N/OC)c1c(F)cccc1COc1ccccc1C [Example 9, N-methyl-2-(2-fluoro-6-o-tolyloxymethylphenyl)-2-methoxyiminoacetamide]
pest or weed control at 100 g/ha (Phytophthora infestans): ≥ 86% | pest or weed control at 100 g/ha [3]: ≥ 82% | pest or weed control at 100 g/ha (Sphaerotheca fuliginea): ≥ 98% | pest or weed control at 100 g/ha [2]: ≥ 97% | chromatographic logP (physchem; pH 2, log P (pH 2)): 3.03

CNC(=O)/C(=N/OC)c1ccc(F)cc1Oc1ncnc(Oc2cccc(Cl)c2C)c1F [Example 10]
pest or weed control at 500 g/ha [1]: ≥ 98% | chromatographic logP (physchem; logP): 3.62

CNC(=O)/C(=N/OC)c1ccc(F)cc1Oc1ncnc(Oc2ccccc2C#N)c1F [Example 11]
chromatographic logP (physchem; logP): 2.68

CNC(=O)/C(=N/OC)c1ccc(F)cc1Oc1nc(C)c(Cl)c(OCC(F)(F)C(F)(F)F)n1 [Example 13]
chromatographic logP (physchem; logP): 3.58

CNC(=O)/C(=N/OC)c1ccc(F)cc1Oc1ncnc(Oc2ccccc2C)c1F [Example 15]
pest or weed control at 100 g/ha (Phytophthora infestans): ≥ 86% | pest or weed control at 100 g/ha [3]: ≥ 82% | pest or weed control at 100 g/ha (Sphaerotheca fuliginea): ≥ 98% | pest or weed control at 100 g/ha [2]: ≥ 97% | chromatographic logP (physchem; logP): 3.2

CNC(=O)/C(=N/OC)c1ccc(F)cc1Oc1ncnc(Oc2cccc(F)c2)c1F [Example 17]
chromatographic logP (physchem; logP): 3.07

CNC(=O)/C(=N/OC)c1ccc(F)cc1Oc1ncnc(Oc2cccc(C#N)c2)c1F [Example 18]
chromatographic logP (physchem; logP): 2.71

CNC(=O)/C(=N/OC)c1ccc(F)cc1Oc1ncnc(Oc2cccc(OC)c2)c1F [Example 19]
chromatographic logP (physchem; logP): 2.91

CNC(=O)/C(=N/OC)c1ccc(F)cc1Oc1ncnc(Oc2ccccc2OC)c1F [Example 20]
chromatographic logP (physchem; logP): 2.82

CNC(=O)/C(=N/OC)c1ccc(F)cc1Oc1ncnc(Oc2cccc(Cl)c2)c1F [Example 21]
chromatographic logP (physchem; logP): 3.31

CNC(=O)/C(=N/OC)c1ccc(F)cc1Oc1ncnc(Oc2ccccc2SC)c1F [Example 23]
chromatographic logP (physchem; logP): 3.07

CNC(=O)/C(=N/OC)c1ccc(F)cc1Oc1ncnc(Oc2ccc(SC)cc2)c1F [Example 24]
chromatographic logP (physchem; logP): 3.24

CNC(=O)/C(=N/OC)c1ccc(F)cc1Oc1ncnc(Oc2cc(C)ccc2Cl)c1F [Example 25]
chromatographic logP (physchem; logP): 3.45

CNC(=O)/C(=N/OC)c1ccc(F)cc1Oc1ncnc(Oc2ccc(F)cc2Cl)c1F [Example 26]
chromatographic logP (physchem; logP): 3.27

CNC(=O)/C(=N/OC)c1ccc(F)cc1Oc1ncnc(Oc2ccccc2OC(C)C)c1F [Example 27]
chromatographic logP (physchem; logP): 3.32

CNC(=O)/C(=N/OC)c1ccc(F)cc1Oc1ncnc(Oc2ccc(SC)c(C)c2)c1F [Example 28]
chromatographic logP (physchem; logP): 3.54

CNC(=O)/C(=N/OC)c1ccc(F)cc1Oc1ncnc(Oc2ccc(OC)cc2Cl)c1F [Example 29]
chromatographic logP (physchem; logP): 3.2

CNC(=O)/C(=N/OC)c1ccc(F)cc1Oc1ncnc(Oc2cccc(C(F)(F)F)c2)c1F [Example 30]
chromatographic logP (physchem; logP): 3.46

CNC(=O)/C(=N/OC)c1ccc(F)cc1Oc1ncnc(Oc2ccc(C(F)(F)F)cc2)c1F [Example 32]
chromatographic logP (physchem; logP): 3.49

CNC(=O)/C(=N/OC)c1ccc(F)cc1Oc1ncnc(Oc2cccc(Cl)c2Cl)c1F [Example 33]
pest or weed control at 100 g/ha (Phytophthora infestans): ≥ 86% | pest or weed control at 100 g/ha [3]: ≥ 82% | pest or weed control at 100 g/ha (Sphaerotheca fuliginea): ≥ 98% | pest or weed control at 100 g/ha [2]: ≥ 97% | chromatographic logP (physchem; logP): 3.53

CNC(=O)/C(=N/OC)c1ccc(F)cc1Oc1ncnc(Oc2ccccc2Br)c1F [Example 34]
chromatographic logP (physchem; logP): 3.22

CNC(=O)/C(=N/OC)c1ccc(F)cc1Oc1ncnc(Oc2ccccc2OC(F)(F)F)c1F [Example 35]
pest or weed control at 100 g/ha [3]: ≥ 82% | pest or weed control at 100 g/ha (Sphaerotheca fuliginea): ≥ 98% | pest or weed control at 100 g/ha [2]: ≥ 97% | chromatographic logP (physchem; logP): 3.27

CNC(=O)/C(=N/OC)c1ccc(F)cc1Oc1ncnc(Oc2cccc(OC(F)(F)F)c2)c1F [Example 36]
chromatographic logP (physchem; logP): 3.46

CNC(=O)/C(=N/OC)c1ccc(F)cc1Oc1ncnc(Oc2ccc(Br)cc2C)c1F [Example 37]
chromatographic logP (physchem; logP): 3.57

CNC(=O)/C(=N/OC)c1ccc(F)cc1Oc1ncnc(Oc2ccc(OC(F)(F)F)cc2C)c1F [Example 38]
chromatographic logP (physchem; logP): 3.71

CNC(=O)/C(=N/OC)c1ccc(F)cc1Oc1ncnc(Oc2ccc(SC(F)(F)F)cc2)c1F [Example 39]
chromatographic logP (physchem; logP): 3.75

CNC(=O)/C(=N/OC)c1ccc(F)cc1Oc1nccc(OCC(F)(F)C(F)(F)F)n1 [Example 40]
pest or weed control at 500 g/ha [1]: ≥ 98% | chromatographic logP (physchem; logP): 2.87

CNC(=O)/C(=N\OC)c1c(F)cccc1Oc1ccccc1 [Example 41]
pest or weed control at 500 g/ha [1]: ≥ 98% | chromatographic logP (physchem; logP): 2.49

CO/N=C(\C(=O)OC)c1c(F)cccc1Oc1ncnc(Oc2cccc(Cl)c2C)c1F [Example 42]
pest or weed control at 500 g/ha [1]: ≥ 98% | chromatographic logP (physchem; logP): 4.41

CO/N=C(\C(=O)OC)c1c(F)cccc1Oc1ccccc1 [Example 43]
pest or weed control at 500 g/ha [1]: ≥ 98% | chromatographic logP (physchem; logP): 3.42

CNC(=O)/C(=N/OC)c1c(F)cccc1Oc1nccc(OCC(F)(F)C(F)(F)F)n1 [Example 44]
pest or weed control at 500 g/ha [1]: ≥ 98% | chromatographic logP (physchem; logP): 2.89

CO/N=C(/C(=O)OC)c1c(F)cccc1CO/N=C1\CCc2ccc(OC)cc21 [Example 49]
chromatographic logP (physchem; logP): 3.65

CNC(=O)/C(=N/OC)c1c(F)cccc1CO/N=C1\CCc2ccc(OC)cc21 [Example 52]
chromatographic logP (physchem; logP): 3.08

CO/N=C(/C(=O)OC)c1c(F)cccc1Oc1cc(C(F)(F)F)ncn1 [Example 53]
chromatographic logP (physchem; logP): 2.91

CO/N=C(\C(C)=N\OCc1cccc(F)c1/C(=N\OC)C(=O)OC)c1ccc(F)cc1F [Example 54]
chromatographic logP (physchem; logP): 4.13

CNC(=O)/C(=N/OC)c1c(F)cccc1CO/N=C(C)/C(=N\OC)c1ccc(F)cc1F [Example 55]
chromatographic logP (physchem; logP): 3.57

CNC(=O)/C(=N/OC)c1c(F)cccc1CO/N=C(C)/C(=N\OC)c1ccc(C)cc1 [Example 58]
chromatographic logP (physchem; logP): 3.71

CNC(=O)/C(=N/OC)c1c(F)cccc1CO/N=C(C)/C(=N\OC)c1ccc(F)cc1 [Example 59]
chromatographic logP (physchem; logP): 3.5

CO/N=C(/C(=O)OC)c1c(O)cccc1F [Example (II-1), methyl (2-fluoro-6-hydroxyphenyl)methoxyiminoacetate]
chromatographic logP (physchem; pH 2, log P (pH 2)): 1.67

CNC(=O)/C(=N/OC)c1c(O)cccc1F [Example (II-2), 2-(2-fluoro-6-hydroxyphenyl)-2-methoxyimino-N-methylacetamide]
chromatographic logP (physchem; pH 2, log P (pH 2)): 1.18

CO/N=C(/C(=O)OC)c1ccc(F)cc1O [Example (II-3), methyl (4-fluoro-2-hydroxyphenyl)methoxyiminoacetate]
chromatographic logP (physchem; pH 2, log P (pH 2)): 2.62

CNC(=O)/C(=N/OC)c1ccc(F)cc1O [Example (II-4), 2-(4-fluoro-2-hydroxyphenyl)-2-methoxyimino-N-methylacetamide]
chromatographic logP (physchem; pH 2, log P (pH 2)): 1.56

COC(=O)C(=O)c1c(F)cccc1OC1CCCCO1 (stereo not drawn) [Example (XIII-1), methyl [2-fluoro-6-(tetrahydropyran-2-yloxy)phenyl]oxoacetate]
chromatographic logP (physchem; pH 2, log P (pH 2)): 2.78

COC(=O)C(=O)c1ccc(F)cc1O [Example (XIV-1), methyl (4-fluoro-2-hydroxyphenyl)oxo-acetate]
chromatographic logP (physchem; pH 2, log P (pH 2)): 2.1

COC(=O)C(=O)c1c(C)cccc1F [Example (XIX-1), methyl (2-fluoro-6-methylphenyl)oxoacetate]
chromatographic logP (physchem; pH 2, log P (pH 2)): 2.44

CO/N=C(/C(=O)OC)c1c(C)cccc1F [Example (XVIII-1), methyl (2-fluoro-6-methylphenyl)methoxyiminoacetate]
chromatographic logP (physchem; pH 2, log P (pH 2)): 2.43
